System in the first series: not listed separately
Nature of the series: Stability of aqueous solutions of the product. The series is classed as physicochemical. Conditions: neutral versus acidic aqueous solutions; acylated amidine function is hydrolyzed in acid. The procedure:
• The crude product obtained in g), t-BuO2C—CH2-(Boc)-(D)-Chg-Pyr-NH—CH -5-(2=NH(NH—COOCH3))-thioph (1.7 g, max. 2.3 mmol), was dissolved in a mixture of 45 ml of methylene chloride, 20 ml of dioxane and 45 ml of 4N hydrochloric acid in dioxane and stirred overnight with exclusion of moisture. The reaction solution was concentrated in vacuo, and the residue was codistilled with ether several times and subsequently extracted by stirring with ether. After drying in vacuo, 1.3 g of the title compound were obtained as a white solid product. […] FAB-MS (M+H^+): 506
Turning to `COC(=O)NC(=N)c1ccc(CNC(=O)C2C=CCN2C(=O)C(NCC(=O)O)C2CCCCC2)s1.Cl` (centres unmarked) [Example 1, N-(Hydroxycarbonylmethyl)-(D)-cyclohexylglycyl-3,4-dehydroproline 2-(N-methoxycarbonyl)amidino-5-thienylmethylamide hydrochloride], the “stability of aqueous solutions” value is reported as “distinctly more stable than acidic solutions”.

The subject of the next series is human colon adenocarcinoma cell lines HT-29, Caco-2 and T84; IEC-18 cell line. In words: Transport experiments through intestinal cell layers on Transwell polycarbonate membranes (apical to basolateral). The series is classed as in vitro ADME. Details: key: +++: very good transport; ++: good transport; +: moderate transport. Conditions: transport rate from apical side through the cell layer to basolateral side, e.g. apical (pH 6.0) to basolateral (pH 8.0), e.g. 24 h; HPLC; divided into categories. The source says: Several in vitro models are available for studying intestinal absorption. Thus, the human colon adenocarcinoma cell lines HT-29, Caco-2 and T84 are routinely employed to investigate various intestinal transport processes (Madara et al., Am. J. Physiol. 1988, 254: G416–G423; K. L. Audus et al., Pharm. Res. 1990, 7, 435–451). The IEC-18 cell line has also shown itself to be a suitable model for investigating the permeability of hydrophilic substances through the intestinal membrane (Ma et al., J. Lab. Clin. Med. 1992 120, 329–41; Duizer et al., J. Contr. Rel. 1997 49, 39–49).
For the transport experiments (for materials and methods, see R. T. Borchardt, P. L. Smith, G. Wilson, Models for Assessing Drug Absorption and Metabolism, 1st edition, Plenum Press New York and London, 1996, chapter 2), the cells are cultivated on Transwell polycarbonate membranes for 17–24 days. The test chamber is arranged so that the membrane divides the apical from the basolateral compartment. Transport of the test substances from the apical side through the cell layer onto the basolateral side can be measured as a function of the pH gradient, for example apical (pH 6.0)→basolateral (pH 8.0).
After incubation of the cells with the test substance, samples are taken from the apical and basolateral sides after a defined time interval (e.g. 24 h). The content of test substance employed and any metabolites in each of the two compartments is determined by HPLC (comparison of retention times) and HPLC-MS (elucidation of metabolites) analyses. The transport rate is calculated.
It is possible on the basis of the results of these tests to divide test substances into the following categories: […]
Consider `CC(C)COC(=O)NC(=N)c1ccc(CNC(=O)C2C=CCN2C(=O)[C@H](NCC(=O)O)C2CCCCC2)s1.Cl` (some centres unmarked) [Example 2, N-(Hydroxycarbonylmethyl)-(D)-cyclohexylglycyl-3,4-dehydroproline 2-(N-isobutyloxycarbonyl)amidino-5-thienylmethylamide hydrochloride], for which the Transport result was “+”.
Still for that read-out and setting: for `Cc1ccc(CON=C(N)c2ccc(CNC(=O)C3C=CCN3C(=O)[C@H](NCC(=O)O)C3CCCCC3)s2)cc1.Cl` (some centres unmarked) [Example 10, N-(Hydroxycarbonylmethyl)-(D)-cyclohexylglycyl-3.4-dehydroproline 2-(N-(p-methylbenzyloxy)amidino)-5-thienylmethylamide hydrochloride] the value was “+”; for `CCOC(=O)CN[C@@H](C(=O)N1CC=CC1C(=O)NCc1ccc(C(N)=NOCc2ccc(C)cc2)s1)C1CCCCC1.Cl` (some centres unmarked) [Example 11, N-(Ethoxycarbonylmethyl)-(D)-cyclohexylglycyl-3.4-dehydroproline 2-(N-(p-methylbenzyloxy)amidino)-5-thienylmethylamide hydrochloride], “+++”; for `CCCCCCCCCCCCCCCCOC(=O)CN[C@H](CC1CCCCC1)C(=O)N1CC=CC1C(=O)NCc1nc(C(=N)N)cs1.Cl.Cl` (some centres unmarked) [Example 21, N-(Hexadecyloxycarbonylmethyl)-(D)-cyclohexylalanyl-3,4-dehydroproline 4-amidino-2-thiazolylmethylamide dihydrochloride], “++”.
Same read-out and setting: for `CCCCCCCCCCCCCCCCOC(=O)CN[C@H](CC1CCCCC1)C(=O)N1CC=CC1C(=O)NCc1nc(C(N)=NO)cs1.Cl` (some centres unmarked) [Example 25, N-(Hexadecyloxycarbonylmethyl)-(D)-cyclohexylalanyl-3,4-dehydroproline 4-hydroxyamidino-2-thiazolylmethylamide hydrochloride] the value was “++”.
Take `CCCCCCOC(=O)CN[C@H](CC1CCCCC1)C(=O)N1CC=CC1C(=O)NCc1nc(C(N)=NO)cs1.Cl` (some centres unmarked) [Example 29, N-(Hexyloxycarbonylmethyl)-(D)-cyclohexylalanyl-3,4-dehydroproline 4-hydroxyamidino-2-thiazolylmethylamide hydrochloride]: the Transport entry was “++”.
Same read-out and setting: the same measure for `CC(C)CCOC(=O)CN[C@H](CC1CCCCC1)C(=O)N1CC=CC1C(=O)NCc1nc(C(N)=NO)cs1.Cl` (some centres unmarked) [Example 33, N-(3,3-Dimethylpropyloxycarbonylmethyl)-(D)-cyclohexylalanyl-3,4-dehydroproline 4-hydroxyamidino-2-thiazolylmethylamide hydrochloride]: “+++”.

Source of the values: patent US7144902B1, “Prodrugs of thrombin inhibitors” (Abbott GmbH & Co. KG, priority 1999, dated 2006).
